These results are taken from patent publication US9073892B2, “Indazolyl triazol derivatives” (Merck Serono S.A., priority 2010, dated 2015).

Where only a bound is given, the exact number is not on record here.

This experiment has as its system T1, IRAK1/4 human.
T1 construct: fused on or other part: His tag and TEV cleavage site at the N-terminus
The experiment is described as follows: IRAK1/4 phosphorylation IC50 (enzymatic assay, table 2). Type of experiment: biochemical. The following applies: human IRAK1/4 phosphorylation. The gist of the method:
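Inhibition values are IC50s. They come from 384-well reactions in which His-TEV-tagged human IRAK-1 or IRAK-4 (the latter with STK1-biotin peptide) met ATP and compounds in DMSO at 20 µM to 1 nM. The buffer was 50 mM Hepes pH7.0 containing MgCl2, DTT, EGTA and BSA, and incubation lasted 2 or 3 hours.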
`OCc1ccc2[nH]nc(-c3cn(-c4ccc(CN5CCOCC5)cc4)nn3)c2c1` [Example 198]: the IC50 lay within 100 to 1000 nM. In turn, `O=c1ccc(-c2ccc(O)cc2)nn1Cc1ccc2[nH]nc(-c3cn(-c4ccc(CN5CCOCC5)cc4)nn3)c2c1` [Example 199] gave an IC50 of 100 to 1000 nM.

For `O=c1ccc(-c2cccc(O)c2)nn1Cc1ccc2[nH]nc(-c3cn(-c4ccc(CN5CCOCC5)cc4)nn3)c2c1` [Example 200], the concentration for half-maximal inhibition (IC50) was less than 100 nM. Regarding `C=C(C)c1ccc2c(-c3cn(-c4ccc(C(=O)N5CCOCC5)cc4)nn3)n[nH]c2c1` [Example 201], the IC50 lay in the range of 100 to 1000 nM.

In turn, `COc1cc2[nH]nc(-c3cn(-c4ccc(C(=O)N5CCOCC5)cc4)nn3)c2cc1Br` [Example 202] returned an IC50 of 1000 to 5000 nM. `O=C(c1ccc(-n2cc(-c3n[nH]c4cc(-c5ccccc5)ccc34)nn2)cc1)N1CCOCC1` [Example 203] showed an IC50 of 1000 to 5000 nM. As for `c1ccc2c(-c3cn(-c4ccc(CC5CCNCC5)cc4)nn3)n[nH]c2c1` [Example 205], the half-inhibitory concentration (IC50) lay in the range of 100 to 1000 nM. `CC(C)c1ccc2c(-c3cn(-c4ccc(C(=O)N5CCOCC5)cc4)nn3)n[nH]c2c1` [Example 206] showed an IC50 of 100 to 1000 nM. Regarding `O=C(c1ccc(-n2cc(-c3n[nH]c4cc(-c5ccc(CO)cc5)ccc34)nn2)cc1)N1CCOCC1` [Example 207], the concentration for half-maximal inhibition (IC50) lay in the range of 1000 to 5000 nM. As to `O=C(c1ccc(-n2cc(-c3n[nH]c4cc(Br)ccc34)nn2)cc1)N1CCOCC1` [Example 208], the IC50 fell in the range of 100 to 1000 nM. As to `Cn1cc(-c2ccc3c(-c4cn(-c5ccc(C(=O)N6CCOCC6)cc5)nn4)n[nH]c3c2)cn1` [Example 209], the IC50 was 1000 to 5000 nM. Then `CN1CCC(c2ccc(-n3cc(-c4n[nH]c5ccccc45)nn3)cc2)CC1` [Example 211], with 100 to 1000 nM. In turn, `COC/C=C/c1ccc2c(-c3cn(-c4ccc(C(=O)N5CCOCC5)cc4)nn3)n[nH]c2c1` [Example 212] registered an IC50 of 100 to 1000 nM. Regarding `COCC#Cc1ccc2c(-c3cn(-c4ccc(C(=O)N5CCOCC5)cc4)nn3)n[nH]c2c1` [Example 213], the IC50 lay within 1000 to 5000 nM.

As to `O=C(c1ccc(-n2cc(-c3n[nH]c4cc(-c5ccncc5)ccc34)nn2)cc1)N1CCOCC1` [Example 214], the IC50 is 100 to 1000 nM.

Turning to `O=C(c1ccc(-n2cc(-c3n[nH]c4cc(C#CCCO)ccc34)nn2)cc1)N1CCOCC1` [Example 215], the IC50 lay within 1000 to 5000 nM. Under `O=C(c1ccc(-n2cc(-c3n[nH]c4cc(CCCCO)ccc34)nn2)cc1)N1CCOCC1` [Example 216] stands 100 to 1000 nM; under `O=C(c1ccc(-n2cc(-c3n[nH]c4cc(C5=CCOCC5)ccc34)nn2)cc1)N1CCOCC1` [Example 217], 100 to 1000 nM. The molecule `CCC(O)CCc1ccc2c(-c3cn(-c4ccc(C(=O)N5CCOCC5)cc4)nn3)n[nH]c2c1` (centres unmarked) [Example 218] gave an IC50 of 1000 to 5000 nM. Under `NCC#Cc1ccc2c(-c3cn(-c4ccc(C(=O)N5CCOCC5)cc4)nn3)n[nH]c2c1` [Example 219] stands 1000 to 5000 nM; under `COCCCc1ccc2c(-c3cn(-c4ccc(C(=O)N5CCOCC5)cc4)nn3)n[nH]c2c1` [Example 220], 100 to 1000 nM. Turning to `C#Cc1ccc2c(-c3cn(-c4ccc(C(=O)N5CCOCC5)cc4)nn3)n[nH]c2c1` [Example 221], the IC50 was 100 to 1000 nM. Turning to `O=C(c1ccc(-n2cc(-c3n[nH]c4ccc(NC5CCCOC5)cc34)nn2)cc1)N1CCOCC1` (centres unmarked) [Example 222], the IC50 fell in the range of 100 to 1000 nM. Under `CN1CCC(Nc2ccc3[nH]nc(-c4cn(-c5ccc(C(=O)N6CCOCC6)cc5)nn4)c3c2)CC1` [Example 223] stands less than 100 nM; under `CN1C2CCC1CC(n1cc(-n3cc(-c4n[nH]c5ccc(F)cc45)nn3)cn1)C2` (centres unmarked) [Example 226], 100 to 1000 nM; under `CN1C2CCC1CC(n1cc(-n3cc(-c4n[nH]c5ccc(Cl)cc45)nn3)cn1)C2` (centres unmarked) [Example 227], 100 to 1000 nM.

As to `O=C(NC1CCOCC1)c1ccc2[nH]nc(-c3cn(-c4ccc(CN5CCOCC5)cc4)nn3)c2c1` [Example 228], the IC50 is 100 to 1000 nM.

`CN1C2CCC1CC(n1cc(-n3cc(-c4n[nH]c5cc(F)ccc45)nn3)cn1)C2` (centres unmarked) [Example 229] registered an IC50 of less than 100 nM. The molecule `O=C(NCc1cccc(O)c1)c1ccc2[nH]nc(-c3cn(-c4ccc(CN5CCOCC5)cc4)nn3)c2c1` [Example 230] came in with an IC50 of less than 100 nM. Regarding `O=C(NC1CCC(O)CC1)c1ccc2[nH]nc(-c3cn(-c4ccc(CN5CCOCC5)cc4)nn3)c2c1` (centres unmarked) [Example 231], the IC50 fell in the range of 100 to 1000 nM. `CC(C)c1ccc(-n2cc(-c3n[nH]c4ccccc34)nn2)cc1` [Example 232] showed an IC50 of 1000 to 5000 nM.

As to `NC(=O)COc1ccc2c(-c3cn(-c4ccc(C(=O)N5CCOCC5)cc4)nn3)n[nH]c2c1` [Example 233], the IC50 lay within 100 to 1000 nM. Take `COCCOc1ccc2c(-c3cn(-c4ccc(C(=O)N5CCOCC5)cc4)nn3)n[nH]c2c1` [Example 234]: the IC50 is 1000 to 5000 nM. `O=C(c1ccc(-n2cc(-c3n[nH]c4cc(O)ccc34)nn2)cc1)N1CCOCC1` [Example 235]: the IC50 lay within 100 to 1000 nM. Then `O=C(c1ccc2[nH]nc(-c3cn(-c4ccc(CN5CCOCC5)cc4)nn3)c2c1)N1CCC(c2ccncc2)CC1` [Example 236], with 100 to 1000 nM. With `CN(C)C1CCN(C(=O)c2ccc3[nH]nc(-c4cn(-c5ccc(CN6CCOCC6)cc5)nn4)c3c2)CC1` [Example 237], the IC50 lay within 100 to 1000 nM. As to `c1ccc2c(-c3cn(-c4ccc(C5CCN(CC6CCCO6)CC5)cc4)nn3)n[nH]c2c1` (centres unmarked) [Example 239], the IC50 was in the range of 100 to 1000 nM. In turn, `O=C(c1ccc(-n2cc(-c3n[nH]c4cc(/C=C/CO)ccc34)nn2)cc1)N1CCOCC1` [Example 240] came in with an IC50 of less than 100 nM. `CN(C)S(=O)(=O)c1ccc(-n2cc(-c3n[nH]c4ccccc34)nn2)cc1` [Example 241] showed a concentration for half-maximal inhibition (IC50) of 100 to 1000 nM. `O=C(c1ccc(-n2cc(-c3n[nH]c4ccc(N5CCCC(F)(F)C5)cc34)nn2)cc1)N1CCOCC1` [Example 242]: the 50% inhibitory concentration (IC50) lay within 100 to 1000 nM. Take `O=S(=O)(c1ccc(-n2cc(-c3n[nH]c4ccccc34)nn2)cc1)N1CCOCC1` [Example 243]: the IC50 lay within 100 to 1000 nM. As for `O=C(c1ccc(-n2cc(-c3n[nH]c4cc(NCCO)ccc34)nn2)cc1)N1CCOCC1` [Example 244], the IC50 lay in the range of 100 to 1000 nM. In the case of `CC(CO)Nc1ccc2c(-c3cn(-c4ccc(C(=O)N5CCOCC5)cc4)nn3)n[nH]c2c1` (centres unmarked) [Example 245], the IC50 fell in the range of 100 to 1000 nM. The molecule `c1ccc2c(-c3cn(-c4ccc(N5CCNCC5)cc4)nn3)n[nH]c2c1` [Example 246] came in with an IC50 of 100 to 1000 nM.

In the case of `c1ccc2c(-c3cn(-c4ccc(CN5CCCCC5)cc4)nn3)n[nH]c2c1` [Example 247], the IC50 lay within 100 to 1000 nM. Then `O=C(c1ccc(-n2cc(-c3n[nH]c4ccc(NCC5CCOCC5)cc34)nn2)cc1)N1CCOCC1` [Example 248], with 100 to 1000 nM; and `c1ccc2c(-c3cn(-c4ccc(C5CC6CCC(C5)N6C5COC5)cc4)nn3)n[nH]c2c1` (centres unmarked) [Example 249], with 100 to 1000 nM; and `O=C(c1ccc(-n2cc(-c3n[nH]c4ccc(N5CCN6CCCC6C5)cc34)nn2)cc1)N1CCOCC1` (centres unmarked) [Example 250], with 100 to 1000 nM. As to `c1ccc2c(-c3cn(-c4ccc(C5CCCNC5)cc4)nn3)n[nH]c2c1` (centres unmarked) [Example 252], the IC50 was less than 100 nM.

For the molecule `CN1[C@@H]2CC[C@H]1C[C@@H](c1ccc(-n3cc(-c4n[nH]c5cc(F)ccc45)nn3)cc1)C2` [Example 253], the IC50 was less than 100 nM. `O=C(c1ccc(-n2cc(-c3n[nH]c4ccc(N5CCCC(O)C5)cc34)nn2)cc1)N1CCOCC1` (centres unmarked) [Example 254] had an IC50 of 100 to 1000 nM. For the molecule `c1ccc2c(-c3cn(-c4ccc([C@@H]5C[C@H]6CC[C@@H](C5)N6)cc4)nn3)n[nH]c2c1` [Example 255], the IC50 is less than 100 nM. Regarding `c1ccc2c(-c3cn(-c4ccc([C@H]5C[C@H]6CC[C@@H](C5)N6)cc4)nn3)n[nH]c2c1` [Example 256], the IC50 is less than 100 nM. Then `O=C(c1ccc(-n2cc(-c3n[nH]c4ccc(NC5CCCNC5)cc34)nn2)cc1)N1CCOCC1` (centres unmarked) [Example 257], with less than 100 nM; and `Nc1ccc(-c2ccc(-n3cc(-c4n[nH]c5ccccc45)nn3)cc2)cn1` [Example 258], with 100 to 1000 nM; and `O=S1(=O)CCN(Cc2ccc(-n3cc(-c4n[nH]c5ccccc45)nn3)cc2)CC1` [Example 259], with 100 to 1000 nM. As to `Cc1cc(-c2ccc(-n3cc(-c4n[nH]c5ccccc45)nn3)cc2)ccn1` [Example 260], the IC50 was 100 to 1000 nM. With `Cn1cc(-c2ccc(-n3cc(-c4n[nH]c5ccccc45)nn3)cc2)cn1` [Example 261], the IC50 is 100 to 1000 nM. As to `c1ccc2c(-c3cn(-c4ccc(-c5cnn(CCN6CCOCC6)c5)cc4)nn3)n[nH]c2c1` [Example 262], the IC50 was in the range of 100 to 1000 nM.

For the molecule `FC(F)(F)c1cc(-n2cc(-c3n[nH]c4ccccc34)nn2)ccc1C1CCNCC1` [Example 263], the IC50 is 100 to 1000 nM. For the molecule `O=C(c1ccc(-n2cc(-c3n[nH]c4ccc(N5CCOC(CCO)C5)cc34)nn2)cc1)N1CCOCC1` (centres unmarked) [Example 264], the IC50 was in the range of 100 to 1000 nM. As for `Cc1ccc2c(-c3cn(-c4ccc(C5CCNCC5)cc4)nn3)n[nH]c2c1` [Example 265], the IC50 was less than 100 nM.

In turn, `Fc1ccc2c(-c3cn(-c4ccc(C5CCNCC5)cc4)nn3)n[nH]c2c1` [Example 266] had an IC50 of less than 100 nM. For the molecule `CN1CCC(c2ccc(-n3cc(-c4n[nH]c5ccccc45)nn3)cc2C(F)(F)F)CC1` [Example 267], the 50% inhibitory concentration (IC50) is 100 to 1000 nM. On to `COc1cc(-n2cc(-c3n[nH]c4ccccc34)nn2)ccc1C1CCNCC1` [Example 268], for which the IC50 is less than 100 nM.

`c1ccc2c(-c3cn(-c4ccc(C5CCCNCC5)cc4)nn3)n[nH]c2c1` (centres unmarked) [Example 269] came in with an IC50 of less than 100 nM.

Molecule `Cc1ccc2c(-c3cn(-c4ccc(C5CCN(CCC(F)(F)F)CC5)cc4)nn3)n[nH]c2c1` [Example 270] yielded an IC50 of 1000 to 5000 nM. Molecule `OC(CN1CCC(c2ccc(-n3cc(-c4n[nH]c5cc(F)ccc45)nn3)cc2)CC1)C(F)(F)F` (centres unmarked) [Example 271] yielded an IC50 of 100 to 1000 nM.
